What all share (format): functional
The test system of experiment [1] is Plasmodium berghei. Kind of experiment: Antiplasmodial activity against Plasmodium berghei ANKA infected in C57BL/6 mice (Mus musculus) assessed as parasitemia at 2 ug/g, intraperitoneally on days 2,4 and 6.
For experiment [2], the system named is Plasmodium berghei. Kind of experiment: Antiplasmodial activity against Plasmodium berghei ANKA infected in C57BL/6 mice (Mus musculus) assessed as parasitemia at 0.5 ug/g, intraperitoneal on day 2, 1 ug/g, intraperitoneal on day 4 followed by 2 ug/g on day 6.
In experiment [3] the test system is Plasmodium berghei. In words: Antiplasmodial activity against Plasmodium berghei ANKA infected in C57BL/6 mice (Mus musculus) assessed as parasitemia at 40 ug/g, intraperitoneally on days 2,4 and 6.
For experiment [4], the system named is Plasmodium berghei. Kind of experiment: Antiplasmodial activity against Plasmodium berghei ANKA infected in C57BL/6 mice (Mus musculus) assessed as parasitemia at 100 ug/g, perorally on days 1,3 and 5.

The record followed here is ChEMBL document CHEMBL1255310, “Simvastatin treatment shows no effect on the incidence of cerebral malaria or parasitemia during experimental malaria” (2008).

On to `CCC(C)(C)C(=O)O[C@H]1C[C@@H](C)C=C2C=C[C@H](C)[C@H](CC[C@@H]3C[C@@H](O)CC(=O)O3)[C@H]21` [SIMVASTATIN], for which the Activity in the experiment on Plasmodium berghei [1] turned out to be 2.38%; in the experiment on Plasmodium berghei [2] it was 3.04%; with Plasmodium berghei [3] it was 2.04%; in the experiment with Plasmodium berghei [4], 2.98%.
